According to patent publication US8394828B2 (Janssen Pharmaceutica, NV, priority 2003, dated 2013):
Read-outs that look alike come from different tables or passages of the source.

How the values were obtained:
human VR1 [1] = biological target: T1, human VR1 (Homo sapiens, UniProt Q8NER1); test: Human VR1 [3H] RTX binding assay; conditions: 3H-RTX binding; for Ki: hVR1, read-out: 3H-RTX binding assay Ki hVR1; for 3H-RTX binding assay % Inhibition @ 1 μM / inhibition at 1 µM: compound at 1 μM
T1 construct: expressed in transfected cells; host or cells: HEK293
Procedure: Compounds of the present invention were tested for their ability to inhibit the binding of [^3H] RTX to hVR1 receptors in a [^3H]
HEK293 cells were transfected with human VR1 vanilloid receptors and washed with Hank's Balanced Salt Solution, dissociated with cell dissociation buffer (Sigma), and then centrifuged at 1000×g for 5 min. […] The pelleted membranes were kept in an −80° C. freezer.
Approximately 120 μg protein/ml from membranes were incubated with indicated concentrations of [^3H] RTX in 0.5 ml of the HEPES buffer (pH 7.4) containing 0.25 mg/mL fatty acid-free bovine serum albumin at 37° C. for 60 min. […] The tip of the microcentrifuge tube containing the pellet was cut off. Bound radioactivity was quantified by scintillation counting. Non-specific binding was tested in the presence of 200 nM unlabeled RTX.

human VR1 [2] = biological target: T1, human VR1; test: Human VR1 functional assay (intracellular Ca++, FLIPR, capsaicin challenge); type: cell-based
Procedure: The functional activity of the test compounds was determined by measuring changes in intracellular calcium concentration using a Ca^++-sensitive fluorescent dye and FLIPR™ technology.
EC50 or IC50 values were determined from dose-response studies.

[3] = hVR1, capsaicin challenge, read-out: FLIPR functional assay IC50 hVR1

T1 sequence (Q8NER1 whole entry): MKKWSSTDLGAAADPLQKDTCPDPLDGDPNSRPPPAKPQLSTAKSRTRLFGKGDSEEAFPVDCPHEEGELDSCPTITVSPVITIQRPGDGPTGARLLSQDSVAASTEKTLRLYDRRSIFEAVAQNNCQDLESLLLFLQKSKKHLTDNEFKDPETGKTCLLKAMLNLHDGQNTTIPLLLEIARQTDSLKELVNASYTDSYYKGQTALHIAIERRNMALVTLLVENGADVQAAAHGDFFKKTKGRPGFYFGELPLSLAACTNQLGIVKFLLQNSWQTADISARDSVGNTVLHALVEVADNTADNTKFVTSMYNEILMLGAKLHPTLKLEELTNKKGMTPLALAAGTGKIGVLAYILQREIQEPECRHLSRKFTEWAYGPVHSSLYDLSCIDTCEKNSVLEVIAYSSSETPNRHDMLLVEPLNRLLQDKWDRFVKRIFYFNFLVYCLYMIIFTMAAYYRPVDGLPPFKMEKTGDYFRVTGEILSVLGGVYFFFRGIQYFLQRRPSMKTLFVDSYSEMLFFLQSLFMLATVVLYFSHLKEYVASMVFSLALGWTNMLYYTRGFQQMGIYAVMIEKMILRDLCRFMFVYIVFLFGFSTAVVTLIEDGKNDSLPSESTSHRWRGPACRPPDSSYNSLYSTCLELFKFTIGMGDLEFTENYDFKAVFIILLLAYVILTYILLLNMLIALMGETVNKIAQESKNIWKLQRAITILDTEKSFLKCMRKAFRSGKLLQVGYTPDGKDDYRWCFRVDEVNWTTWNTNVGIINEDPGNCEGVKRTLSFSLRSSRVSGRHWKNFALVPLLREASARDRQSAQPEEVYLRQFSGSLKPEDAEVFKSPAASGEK

Row | Ki (human VR1 [1]) [µM] | inhibition at 1 µM (human VR1 [1]) [%] | Compound | further results
1 | 0.876 | – | CCCCCNc1ccc(C(=O)Nc2cnc3ccccc3c2)cc1 [4-Pentylamino-N-quinolin-3-yl-benzamide] | IC50 (human VR1 [2]; FLIPR functional assay IC50 hVR1 60 min, 60 min): 30 µM; IC50 (human VR1 [2]; [3]): 8.1 µM
2 | 0.0159 | – | CC(C)(CCc1ccccc1)c1ccc(CCC(=O)Nc2cnc3ccccc3c2)cc1 [3-{4-(1,1-Dimethyl-3-phenyl-propyl)-phenyl}-N-quinolin-3-yl-propionamide] | –
3 | – | – | O=C(Nc1cnc2ccccc2c1)c1ccc(N2CCCCC2)nc1 [3,4,5,6-Tetrahydro-2H-{1,2′}bipyridinyl-5′-carboxylic acid q] [3,4,5,6-Tetrahydro-2H-{1,2′}bipyridinyl-5′-carboxylic acid quinolin-3-ylamide] | 3H-RTX binding assay % Inhibition @ 1 μM (human VR1 [1]): 100%
4 | 0.125 | 79 | CN(CC=Cc1ccccc1)c1ccc(C(=O)Nc2cnc3ccccc3c2)cc1 [4-{Methyl-(3-phenyl-allyl)-amino}-N-quinolin-3-yl-benzamide] | –
5 | – | – | O=C(Nc1cnc2ccccc2c1)c1ccc(N2CCCCC2)nc1 [3,4,5,6-Tetrahydro-2H-[1,2′]bipyridinyl-5′-carboxylic acid q] [3,4,5,6-Tetrahydro-2H-[1,2′]bipyridinyl-5′-carboxylic acid quinolin-3-ylamide] | 3H-RTX binding assay % Inhibition @ 1 μM (human VR1 [1]): 1%
6 | – | 27 | O=C(Nc1cnc2ccccc2c1)c1ccc(N2CCCC2)cc1 [4-Pyrrolidin-1-yl-N-quinolin-3-yl-benzamide] | –
7 | – | – | CC(C)(C)c1ccc(C#CC(=O)Nc2cnc3ccccc3c2)cc1 [3-(4-tert-Butyl-phenyl)-propynoic acid quinolin-3-ylamide] | IC50 (human VR1 [2]; [3]): 0.066 µM
8 | 2.2 | – | CCCCCc1ccc(CC(=O)Nc2cnc3ccccc3c2)cc1 [2-(4-Pentyl-phenyl)-N-quinolin-3-yl-acetamide] | –
9 | – | – | O=C(Nc1cnc2ccccc2c1Cl)c1ccc2c(ccn2C2CCCCC2)c1 [1-Cyclohexyl-1H-indole-5-carboxylic acid (4-chloro-quinolin-3-yl)-amide] | IC50 (human VR1 [2]; [3]): 0.166 µM
10 | – | 4 | O=C(Nc1cnc2ccccc2c1)c1ccc(N2CCOCC2)cc1 [4-Morpholin-4-yl-N-quinolin-3-yl-benzamide] | –
11 | 1.13 | 65 | O=C(Nc1cnc2ccccc2c1)c1ccc(NCC2CCCCC2)cc1Cl [2-Chloro-4-(cyclohexylmethyl-amino)-N-quinolin-3-yl-benzamide] | –
12 | – | – | CC1(C)CCC(C)(C)c2cc(C=CC(=O)Nc3cnc4ccccc4c3)ccc21 [N-Quinolin-3-yl-3-(5,5,8,8-tetramethyl-5,6,7,8-tetrahydro-naphthalen-2-yl)-acrylamide] | IC50 (human VR1 [2]; [3]): 0.065 µM
13 | 0.087 | 111 | Cc1cc(C(=O)Nc2cnc3ccccc3c2)ccc1NCC1CCCCC1 [4-(Cyclohexylmethyl-amino)-3-methyl-N-quinolin-3-yl-benzamide] | –
14 | 0.162 | 87 | O=C(Nc1cnc2ccccc2c1)c1ccc(N(CCc2ccccc2)CC2CCCCC2)cc1 [4-(Cyclohexylmethyl-phenethyl-amino)-N-quinolin-3-yl-benzamide] | –
15 | 0.527 | 65 | CCC(C)(C)c1ccc(CCCC(=O)Nc2cnc3ccccc3c2)cc1 [4-{4-(1,1-Dimethyl-propyl)-phenyl}-N-quinolin-3-yl-butyramide] | –
16 | – | 8 | O=C(Nc1cnc2ccccc2c1)c1ccc(N2CCC(N3CCCCC3)CC2)cc1 [4-[1,4′]Bipiperidinyl-1′-yl-N-quinolin-3-yl-benzamide] | –
17 | – | 21 | CCCCCN(C)c1ccccc1C(=O)Nc1cnc2ccccc2c1 [2-(Methyl-pentyl-amino)-N-quinolin-3-yl-benzamide] | –
18 | – | 9 | O=C(Nc1cnc2ccccc2c1)c1ccc(N2CCC3(CC2)OCCO3)cc1 [4-(1,4-Dioxa-8-aza-spiro[4.5]dec-8-yl)-N-quinolin-3-yl-benzamide] | –
19 | 0.0612 | 60 | O=C(Nc1cnc2ccccc2c1)c1ccc(N2CCCCC2)cc1 [4-Piperidin-1-yl-N-quinolin-3-yl-benzamide] | –
20 | – | – | O=C(Nc1cnc2ccccc2c1)c1ccc(NC2CCCCCC2)cc1 [4-Cycloheptylamino-N-quinolin-3-yl-benzamide] | IC50 (human VR1 [2]; [3]): 0.73 µM
21 | – | 1 | O=C(Nc1cnc2ccccc2c1)c1ccc(N2Cc3ccccc3C2)cc1 [4-(1,3-Dihydro-isoindol-2-yl)-N-quinolin-3-yl-benzamide] | –
22 | – | – | CN(c1ccc(C(=O)Nc2cnc3ccccc3c2Cl)cc1)C1CCCCC1 [N-(4-Chloro-quinolin-3-yl)-4-(cyclohexyl-methyl-amino)-benzamide] | IC50 (human VR1 [2]; [3]): 0.107 µM
23 | – | 41 | O=C(Nc1cnc2ccccc2c1)c1ccc(N2CCSCC2)cc1 [N-Quinolin-3-yl-4-thiomorpholin-4-yl-benzamide] | –
24 | – | 0 | CCCCCCCN(C)c1ccccc1C(=O)Nc1cnc2ccccc2c1 [2-(Heptyl-methyl-amino)-N-quinolin-3-yl-benzamide] | –

Row | Ki (human VR1 [1]) [µM] | inhibition at 1 µM (human VR1 [1]) [%] | Compound | further results
25 | – | 19 | CN(c1ccc(C(=O)Nc2cnc3ccccc3c2)cc1)C1CCOCC1 [4-{Methyl-(tetrahydro-pyran-4-yl)-amino}-N-quinolin-3-yl-benzamide] | –
26 | 0.194 | 80 | CCCCC(C)(C)c1ccc(C=CCC(=O)Nc2cnc3ccccc3c2)cc1 [4-{4-(1,1-Dimethyl-pentyl)-phenyl}-but-3-enoic acid quinolin-3-ylamide] | –
27 | 0.0292 | 104 | O=C(Nc1cnc2ccccc2c1)c1ccc(N2CC[C@@H]3CCCC[C@H]3C2)cc1 (relative stereo) [trans-4-(Octahydro-isoquinolin-2-yl)-N-quinolin-3-yl-benzamide] | –
28 | 0.00203 | – | CC(C)(C)c1ccc(CCC(=O)Nc2cnc3ccccc3c2)cc1 [3-(4-tert-Butyl-phenyl)-N-quinolin-3-yl-propionamide] | –
29 | 0.00111 | – | CC(C)(C)c1ccc(C=CC(=O)Nc2cnc3ccccc3c2)cc1 [3-(4-tert-Butyl-phenyl)-N-quinolin-3-yl-acrylamide] | –
30 | 0.169 | 67 | CCCCCN(Cc1ccccc1)c1ccc(C(=O)Nc2cnc3ccccc3c2)cc1 [4-(Benzyl-pentyl-amino)-N-quinolin-3-yl-benzamide] | –
31 | – | – | CC1(C)CCC(C)(C)c2cc(C=CC(=O)Nc3cnc4ccccc4c3Cl)ccc21 [N-(4-Chloro-quinolin-3-yl)-3-(5,5,8,8-tetramethyl-5,6,7,8-tetrahydro-naphthalen-2-yl)-acrylamide] | IC50 (human VR1 [2]; [3]): 0.03 µM
32 | – | 23 | CCCCCNc1ccccc1C(=O)Nc1cnc2ccccc2c1 [2-Pentylamino-N-quinolin-3-yl-benzamide] | –
33 | 0.0304 | – | CC1(C)CCC(C)(C)c2cc(C(=O)Nc3cnc4ccccc4c3)ccc21 [5,5,8,8-Tetramethyl-5,6,7,8-tetrahydro-naphthalene-2-carboxylic acid quinolin-3-ylamide] | –
34 | 0.0142 | – | CCC(C)(C)c1ccc(CCC(=O)Nc2cnc3ccccc3c2)s1 [3-{5-(1,1-Dimethyl-propyl)-thiophen-2-yl}-N-quinolin-3-yl-propionamide] | –
35 | – | 9 | O=C(Nc1cnc2ccccc2c1)c1ccc(NC2CCOCC2)cc1 [N-Quinolin-3-yl-4-(tetrahydro-pyran-4-ylamino)-benzamide] | –
36 | – | 78 | CC1CCCN(c2ccc(C(=O)Nc3cnc4ccccc4c3)cc2)C1 (stereo not drawn) [4-(3-Methyl-piperidin-1-yl)-N-quinolin-3-yl-benzamide] | –
37 | 0.158 | – | CCCCCN(CCCCC)c1ccc(C(=O)Nc2cnc3ccccc3c2)cc1 [4-Dipentylamino-N-quinolin-3-yl-benzamide] | –
38 | 29.3 | 34 | O=C(Nc1cnc2ccccc2c1)c1ccc(N2CCC(c3ccccc3)CC2)cc1 [4-(4-Phenyl-piperidin-1-yl)-N-quinolin-3-yl-benzamide] | –
39 | 0.276 | 61 | O=C(Nc1cnc2ccccc2c1)c1ccc(N2CCC(C(=O)c3ccccc3)CC2)cc1 [4-(4-Benzoyl-piperidin-1-yl)-N-quinolin-3-yl-benzamide] | –
40 | 0.508 | – | CCCCCN(CCCCC)c1ccc(CC(=O)Nc2cnc3ccccc3c2)cc1 [2-(4-Dipentylamino-phenyl)-N-quinolin-3-yl-acetamide] | –
41 | 0.122 | 65 | CCCCCN(C)c1ccc(C=CC(=O)Nc2cnc3ccccc3c2)cc1 [3-{4-(Methyl-pentyl-amino)-phenyl}-N-quinolin-3-yl-acrylamide] | –
42 | 0.153 | – | CCCCCN(CCCCC)c1ccc(CCC(=O)Nc2cnc3ccccc3c2)cc1 [3-(4-Dipentylamino-phenyl)-N-quinolin-3-yl-propionamide] | –
43 | – | – | O=C(Nc1cnc2ccccc2c1)c1ccc2c(ccn2C2CCCCC2)c1 [1-Cyclohexyl-1H-indole-5-carboxylic acid quinolin-3-ylamide] | IC50 (human VR1 [2]; [3]): 0.074 µM
44 | 5.76 | – | CC(C)(C)c1ccc(CC(=O)Nc2cnc3ccccc3c2)cc1 [2-(4-tert-Butyl-phenyl)-N-quinolin-3-yl-acetamide] | –
45 | 0.0982 | 89 | CN(c1cccc(C(=O)Nc2cnc3ccccc3c2)c1)C1CCCCC1 [3-(Cyclohexyl-methyl-amino)-N-quinolin-3-yl-benzamide] | –
46 | 1.35 | – | CCCCCN(C)c1ccc(CC(=O)Nc2cnc3ccccc3c2)cc1 [2-{4-(Methyl-pentyl-amino)-phenyl}-N-quinolin-3-yl-acetamide] | –
47 | 0.0111 | 105 | CC(C)=CCC[C@@H](C)CCN(C)c1ccc(C(=O)Nc2cnc3ccccc3c2)cc1 [R-4-{(3,7-Dimethyl-oct-6-enyl)-methyl-amino}-N-quinolin-3-yl-benzamide] | –
